# Assays:
# [1] = tested on: IL-17AA-induced IL-17 signaling pathway; test: Inhibition of IL-17AA-induced IL-17 signaling pathway in HEK-Blue IL-17 reporter cells (SEAP); type: cell-based; conditions: Homo sapiens; HEK-Blue IL-17 cells, IL-17AA 2.5 ng/mL, 20 hours; read-out: IC50 for Inhibiting IL-AA Signaling
# Summary of the method: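 HEK-Blue IL-17 cells (HEK293 expressing human IL-17RA/RC, ACT1 and NF-κB/AP-1-driven SEAP), 10,000/well, pre-incubated with compound (serial dilution from 10 μM) for 1 h at 37 °C, then stimulated with IL-17AA at 2.5 ng/mL final for 20 h. SEAP in supernatant read with Quanti-Blue at 620 nm; IC50 by 4-parameter fit.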
# IL-17AA and IL-17RA = target: T1, IL-17AA and IL-17RA (Homo sapiens, UniProt Q16552); test: Competitive inhibition of human IL-17AA and IL-17RA binding (HTRF); conditions: recombinant IL-17AA (His-tag) and IL-17RA (hFc-tag); read-out: IC50 for Inhibiting IL-AA/IL-RA Binding
# T1 construct: purchased Sino Biological 12047-H07B (IL-17AA); 10895-H02H (IL-17RA)
# T1 sequence (Q16552 24-155): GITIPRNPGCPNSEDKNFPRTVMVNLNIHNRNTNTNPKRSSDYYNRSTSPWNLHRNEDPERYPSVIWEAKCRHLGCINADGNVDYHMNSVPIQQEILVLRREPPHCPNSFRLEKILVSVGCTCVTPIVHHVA
# Summary of the method: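 His-IL-17AA (1 nM) premixed 1 h with anti-His-Tb (0.4 nM), and Fc-IL-17RA (1 nM) with anti-IgG-d2 (1 μg/mL); these are pre-mix levels. Compounds, diluted from 10 μM, preincubated 2 h RT with IL-17AA mix; IL-17RA mix then added, 20 min. 665/615 ratio vs no-compound and no-IL-17AA controls; IC50 by 4-parameter fit.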
# [2] = tested on: rat collagen induced arthritis (CIA) model; test: In vivo efficacy study in rat collagen induced arthritis (CIA) model; conditions: female Lewis rats, 20 mg/kg PO once a day, 14 days
# Method: Example 45. In Vivo Efficacy Study in Rat Collagen Induced Arthritis (CIA) Model
# Bovine type II collagen solution (Chondrex) was emulsified with an equal volume of incomplete Freund's adjuvant (IFA, Sigma) to achieve an emulsion with a collagen concentration of 1 mg/mL. Female Lewis rats were immunized with the emulsion (200 μL per rat) through subcutaneous injection at the base of tail. After seven days from the initial immunization, rats received a booster injection of the emulsion (100 μL per rat). Each paw of the rat was evaluated and scored on a 0-4 scale based on arthritis severity, and the arthritis score of each rat was the sum of scores from four paws. When the arthritis scores reached 2-3, rats were randomized into four groups and dosed once a day via oral gavage (PO) with vehicle, compounds 35, 49 and 66 for 14 days, respectively. The arthritis score was assessed every other day. Efficacy was calculated by [1−(T14−T0)/(V14−V0)]×100%, where T14 and V14 are the average arthritis scores of the treatment group and the vehicle group on Day 14 of measurement, respectively, while T0 and V0 are the average arthritis scores of the treatment group and the vehicle group on Day 0, respectively. Statistical significance of difference in arthritis scores between the treatment and vehicle groups was analyzed using one-way ANOVA followed by Dunnett's test, and P<0.05 was considered statistically significant.
# [3] = tested on: IL-17AF-induced IL-17 signaling pathway; test: Inhibition of IL-17AF-induced IL-17 signaling pathway; type: cell-based; conditions: Homo sapiens; IL-17AF used instead of IL-17AA; read-out: IC50 for Inhibiting IL-AF Signaling
# Summary of the method: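 HEK293-derived HEK-Blue IL-17 cells (IL-17RA/RC, ACT1, NF-κB/AP-1-driven SEAP) preincubated 1 hour at 37° C with serially diluted compound from 10 μM, then stimulated with IL-17AF for 20 hours. SEAP read colorimetrically at 620 nm; IC50 from 4-parameter fit of % inhibition.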
IC50 [1] [nM],IC50 (IL-17AA and IL-17RA) [nM],IC50 [3] [nM],Structure (SMILES),suppression of arthritis disease progression (arthritis score) [2]
1.8,2.2,2.6,"COCC(=O)N[C@@H](c1ncnn1CC1CC1)[C@@H](C)c1ccc(NC(=O)[C@@H](NC(=O)c2nonc2C)C(C2CC2)C2CC2)c(F)c1 [Compound 39, N-((S)-1,1-dicyclopropyl-3-((4-((1R,2S)-1-(1-(cyclopropylmethyl)-1H-1,2,4-triazol-5-yl)-1-(2-methoxyacetamido)propan-2-yl)-2-fluorophenyl)amino)-3-oxopropan-2-yl)-4-methyl-1,2,5-oxadiazole-3-carboxamide]",completely suppressed arthritis disease progression
4.5,5.2,8.6,"[2H]C([2H])([2H])n1nccc1C(=O)N[C@H](C(=O)Nc1ccc([C@H](C)[C@@H](NC(=O)COC)c2ncnn2CC2CC2)cc1F)C(C1CC1)C1CC1 [Compound 35, N-((S)-1,1-dicyclopropyl-3-((4-((1R,2S)-1-(1-(cyclopropylmethyl)-1H-1,2,4-triazol-5-yl)-1-(2-methoxyacetamido)propan-2-yl)-2-fluorophenyl)amino)-3-oxopropan-2-yl)-1-(methyl-d3)-1H-pyrazole-5-carboxamide]",completely suppressed arthritis disease progression
3.3,1.1,8.4,"CCC(=O)N[C@@H](c1ncnn1CC1CC1)[C@@H](C)c1ccc(NC(=O)[C@@H](NC(=O)c2nonc2C)C(C2CC2)C2CC2)c(F)c1 [Compound 66, N-((S)-1,1-dicyclopropyl-3-((4-((1R,2S)-1-(1-(cyclopropylmethyl)-1H-1,2,4-triazol-5-yl)-1-propionamidopropan-2-yl)-2-fluorophenyl)amino)-3-oxopropan-2-yl)-4-methyl-1,2,5-oxadiazole-3-carboxamide]",completely suppressed arthritis disease progression
74,125,232,"CCn1nccc1C(=O)N[C@H](C(=O)Nc1ccc([C@H](C)[C@H](NC(=O)COC)c2nncn2CC2CC2)cc1F)C(C1CC1)C1CC1 [Compound 37, N-((S)-1,1-dicyclopropyl-3-((4-((1S,2S)-1-(4-(cyclopropylmethyl)-4H-1,2,4-triazol-3-yl)-1-(2-methoxyacetamido)propan-2-yl)-2-fluorophenyl)amino)-3-oxopropan-2-yl)-1-ethyl-1H-pyrazole-5-carboxamide]",
39,27,102,"CCn1nccc1C(=O)N[C@H](C(=O)Nc1ccc([C@H](C)[C@@H](NC(=O)COC)c2nccnc2OC2CC2)cc1F)C(C1CC1)C1CC1 [Compound 27, N-((S)-1-((4-((1R,2S)-1-(3-cyclopropoxypyrazin-2-yl)-1-(2-methoxyacetamido)propan-2-yl)-2-fluorophenyl)amino)-3,3-dicyclopropyl-1-oxopropan-2-yl)-1-ethyl-1H-pyrazole-5-carboxamide]",
9.6,5.3,13,"[2H]C([2H])([2H])OCC(=O)N[C@@H](c1ncnn1CC1CC1)[C@@H](C)c1ccc(NC(=O)[C@@H](NC(=O)c2ccnn2C([2H])([2H])[2H])C(C2CC2)C2CC2)c(F)c1 [Compound 71, N-((S)-1,1-dicyclopropyl-3-((4-((1R,2S)-1-(1-(cyclopropylmethyl)-1H-1,2,4-triazol-5-yl)-1-(2-(methoxy-d3)acetamido)propan-2-yl)-2-fluorophenyl)amino)-3-oxopropan-2-yl)-1-(methyl-d3)-1H-pyrazole-5-carboxamide]",
42,23,98,"CCn1nccc1C(=O)N[C@H](C(=O)Nc1ccc([C@H](C)[C@@H](NC(=O)COC)c2nnc3cnccn23)cc1F)C(C1CC1)C1CC1 [Compound 88, N-((S)-1-((4-((1R,2S)-1-([1,2,4]triazolo[4,3-a]pyrazin-3-yl)-1-(2-methoxyacetamido)propan-2-yl)-2-fluorophenyl)amino)-3,3-dicyclopropyl-1-oxopropan-2-yl)-1-ethyl-1H-pyrazole-5-carboxamide]",
3.6,1.1,5.9,"Cc1nonc1C(=O)N[C@H](C(=O)Nc1ccc([C@H](C)[C@@H](NC(=O)COC(F)(F)F)c2ncnn2CC2CC2)cc1F)C(C1CC1)C1CC1 [Compound 64, N-((S)-1,1-dicyclopropyl-3-((4-((1R,2S)-1-(1-(cyclopropylmethyl)-1H-1,2,4-triazol-5-yl)-1-(2-(trifluoromethoxy)acetamido)propan-2-yl)-2-fluorophenyl)amino)-3-oxopropan-2-yl)-4-methyl-1,2,5-oxadiazole-3-carboxamide]",
5.7,2.8,8.6,"COCC(=O)N[C@@H](c1nncn1CC1CC1)[C@@H](C)c1ccc(NC(=O)[C@@H](NC(=O)OCc2cc(C(F)F)on2)C(C2CC2)C2CC2)c(F)c1 [Compound 32, (5-(Difluoromethyl)isoxazol-3-yl)methyl ((S)-1,1-dicyclopropyl-3-((4-((1R,2S)-1-(4-(cyclopropylmethyl)-4H-1,2,4-triazol-3-yl)-1-(2-methoxyacetamido)propan-2-yl)-2-fluorophenyl)amino)-3-oxopropan-2-yl)carbamate]",
63,31,85,"CCC(=O)N[C@@H](c1ncnn1CC1CC1)[C@@H](C)c1ccc(NC(=O)[C@H](NC(=O)c2nonc2C)C(C2CC2)C2CC2)c(F)c1 [Compound 84, N-((R)-1,1-dicyclopropyl-3-((4-((1R,2S)-1-(1-(cyclopropylmethyl)-1H-1,2,4-triazol-5-yl)-1-propionamidopropan-2-yl)-2-fluorophenyl)amino)-3-oxopropan-2-yl)-4-methyl-1,2,5-oxadiazole-3-carboxamide]",
32,23,66,"CCCn1cnc([C@H](NC(=O)COC)[C@@H](C)c2ccc(NC(=O)[C@@H](NC(=O)c3ccnn3CC)C(C3CC3)C3CC3)c(F)c2)n1 [Compound 30, N-((S)-1,1-dicyclopropyl-3-((2-fluoro-4-((1R,2S)-1-(2-methoxyacetamido)-1-(1-propyl-1H-1,2,4-triazol-3-yl)propan-2-yl)phenyl)amino)-3-oxopropan-2-yl)-1-ethyl-1H-pyrazole-5-carboxamide]",
11,4.9,16,"CCn1nccc1C(=O)N[C@H](C(=O)Nc1ccc([C@H](C)[C@@H](NC(=O)COC)c2ncnn2CC2CC2)cc1F)C1CCC(C)CC1 (stereo partly drawn) [Compound 41, N-((S)-2-((4-((1R,2S)-1-(1-(cyclopropylmethyl)-1H-1,2,4-triazol-5-yl)-1-(2-methoxyacetamido)propan-2-yl)-2-fluorophenyl)amino)-1-((1R,4S)-4-methylcyclohexyl)-2-oxoethyl)-1-ethyl-1H-pyrazole-5-carboxamide]",
39,12,74,"COCC(=O)N[C@@H](c1ncnn1CCN(C)C)[C@@H](C)c1ccc(NC(=O)[C@@H](NC(=O)c2nonc2C)C(C2CC2)C2CC2)c(F)c1 [Compound 61, N-((S)-1,1-dicyclopropyl-3-((4-((1R,2S)-1-(1-(2-(dimethylamino)ethyl)-1H-1,2,4-triazol-5-yl)-1-(2-methoxyacetamido)propan-2-yl)-2-fluorophenyl)amino)-3-oxopropan-2-yl)-4-methyl-1,2,5-oxadiazole-3-carboxamide]",

# Reference: US20260083708A1, “IL-17 MODULATORS AND USES THEREOF” (NNOCARE PHARMA INC., priority 2024, published 2026)
